Reference: US20070149570A1, “Piperidine derivative and use thereof” (priority 2005, published 2007)

These compounds were tested against T1, substance P receptors (Homo sapiens, UniProt P25103) (assay: Radioligand receptor binding inhibitory activity using receptor from human lymphoblast cells (IM-9), 125I-BHSP). Settings: IC50 (concentration necessary to cause 50% inhibition), radioligand 125I-BHSP, 25° C., 30 minutes.
T1 construct: The receptor was prepared from human lymphoblast cells (IM-9); endogenous in cells; host or cells: IM-9 human lymphoblast cells (membrane preparation)
Method: Radioligand receptor binding inhibitory activity (Binding inhibitory activity using receptor from human lymphoblast cells (IM-9))
The method of M. A. Cascieri et al., [Molecular Pharmacology, vol. 42, p. […] The receptor was prepared from human lymphoblast cells (IM-9). IM-9 cells (2×10^5 cells/mL) were incubated for 3 days (one liter), which was then subjected to centrifugation for 5 minutes at 500×G to obtain cell pellets. […] The residue was washed twice with 30 mL of the above-mentioned buffer, which was then preserved frozen (−80° C.) as a specimen of the receptor.
The specimen was suspended in a reaction buffer (50 mM Tri-HCl buffer (pH 7.4), 0.02% bovine serum albumin, 1 mM phenylmethylsulfonyl fluoride, 2 μg/mL chymostatin, 40 μg/mL bacitracin and 3 mM manganese chloride) to have protein in the concentration of 0.5 mg/mL of protein and 100 μL portion of the suspension was used in the reaction. […] The amount of nonspecific binding was determined by adding substance P at a final concentration of 2×10^−6 M.
After the reaction, using a cell harvester (290 PHD, Cambridge Technology, Inc., U.S.A.), filtration was carried out through a glass filter (GF/B, Whatman, U.S.A.), which was immersed in 0.1% polyethyleneimine for 24 hours and dried. After washing three times with 250 μL of 50 mM Tris-HCl buffer (pH 7.4) containing 0.02% bovine serum albumin, the radioactivity remaining on the filter was determined with a gamma counter.

T1 sequence (P25103 whole entry): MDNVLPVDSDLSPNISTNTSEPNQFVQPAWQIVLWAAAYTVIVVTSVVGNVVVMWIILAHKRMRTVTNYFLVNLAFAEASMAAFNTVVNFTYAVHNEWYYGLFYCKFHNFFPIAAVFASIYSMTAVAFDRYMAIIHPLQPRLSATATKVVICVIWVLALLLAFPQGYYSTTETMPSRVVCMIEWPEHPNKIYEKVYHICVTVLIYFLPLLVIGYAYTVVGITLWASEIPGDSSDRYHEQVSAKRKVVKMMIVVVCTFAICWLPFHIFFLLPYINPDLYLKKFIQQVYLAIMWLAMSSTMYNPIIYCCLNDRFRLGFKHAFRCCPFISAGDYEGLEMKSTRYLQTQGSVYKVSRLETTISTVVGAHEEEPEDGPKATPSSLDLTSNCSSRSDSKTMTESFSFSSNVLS

| Compound | IC50 |
| --- | --- |
| COc1ccc(-c2ccc(C#N)cc2)cc1CN[C@H]1CCN(C(=O)C2CCN(C(C)=O)CC2)C[C@H]1c1ccccc1 [Example 35, 3′-[({(3R,4S)-1-[(1-acetylpiperidin-4-yl)carbonyl]-3-phenylpiperidin-4-yl}amino)methyl]-4′-methoxybiphenyl-4-carbonitrile] | 0.017 nM |

Same assay, conditions: radioligand 125I-BHSP, 25° C., 30 minutes, read-out: IC50 (concentration necessary to cause 50% inhibition)

| Compound | IC50 |
| --- | --- |
| COc1ccc(-c2ccc(Cl)cc2)cc1CN[C@H]1CCN(C(=O)CNC(C)=O)C[C@H]1c1ccccc1 [Example 15, N-[2-((3R,4S)-4-{[(4′-chloro-4-methoxybiphenyl-3-yl)methyl]amino}-3-phenylpiperidin-1-yl)-2-oxoethyl]acetamide] | 0.02 nM |
| COc1ccc(-c2ccc(F)cc2)cc1CN[C@H]1CCN(C(=O)CNC(C)=O)C[C@H]1c1ccccc1 [Example 16, N-[2-((3R,4S)-4-{[(4′-fluoro-4-methoxybiphenyl-3-yl)methyl]amino}-3-phenylpiperidin-1-yl)-2-oxoethyl]acetamide] | 0.031 nM |
| COc1ccc(-c2ccc(C)cc2)cc1CN[C@H]1CCN(C(=O)CNC(C)=O)C[C@H]1c1ccccc1 [Example 17, N-[2-((3R,4S)-4-{[(4-methoxy-4′-methylbiphenyl-3-yl)methyl]amino}-3-phenylpiperidin-1-yl)-2-oxoethyl]acetamide] | 0.022 nM |
| COc1ccc(-c2ccc(C(F)(F)F)cc2)cc1CN[C@H]1CCN(C(=O)CNC(C)=O)C[C@H]1c1ccccc1 [Example 18, N-{2-[(3R,4S)-4-({[4-methoxy-4′-(trifluoromethyl)biphenyl-3-yl]methyl}amino)-3-phenylpiperidin-1-yl]-2-oxoethyl}acetamide] | 0.036 nM |
| CC(=O)NCC(=O)N1CC[C@H](NCc2cc(-c3ccc(Cl)cc3)ccc2OC(F)(F)F)[C@H](c2ccccc2)C1 [Example 72, N-{2-[(3R,4S)-4-({[4′-chloro-4-(trifluoromethoxy)biphenyl-3-yl]methyl}amino)-3-phenylpiperidin-1-yl]-2-oxoethyl}acetamide] | 0.023 nM |
| CC1(C)OC(=O)N(CC(=O)N2CC[C@H](NCc3cc(-c4ccc(C#N)cc4F)ccc3OC(F)(F)F)[C@H](c3ccccc3)C2)C1=O [Example 96, 3′-[({(3R,4S)-1-[(5,5-dimethyl-2,4-dioxo-1,3-oxazolidin-3-yl)acetyl]-3-phenylpiperidin-4-yl}amino)methyl]-2-fluoro-4′-(trifluoromethoxy)biphenyl-4-carbonitrile] | 0.021 nM |
| CC1(C)OC(=O)N(CC(=O)N2CC[C@H](NCc3cc(-c4ccc(C#N)cc4F)ccc3OC(F)(F)F)[C@H](c3ccccc3)C2)C1=O [Example 97, 3′-[({(3R,4S)-1-[(5,5-dimethyl-2,4-dioxo-1,3-oxazolidin-3-yl)acetyl]-3-phenylpiperidin-4-yl}amino)methyl]-2-fluoro-4′-(trifluoromethoxy)biphenyl-4-carbonitrile] | 0.023 nM |
| CC(=O)N1CCC(C(=O)N2CC[C@H](NCc3cc(-c4ccc(C#N)cc4F)ccc3OC(F)(F)F)[C@H](c3ccccc3)C2)CC1 [Example 101, 3′-[({(3R,4S)-1-[(1-acetylpiperidin-4-yl)carbonyl]-3-phenylpiperidin-4-yl}amino)methyl]-2-fluoro-4′-(trifluoromethoxy)biphenyl-4-carbonitrile] | 0.024 nM |
| CC1(C)OC(=O)N(CC(=O)N2CC[C@H](NCc3cc(-c4ccc(Cl)cc4)ccc3OC(F)(F)F)[C@H](c3ccccc3)C2)C1=O [Example 116, 3-{2-[(3R,4S)-4-({[4′-chloro-4-(trifluoromethoxy)biphenyl-3-yl]methyl}amino)-3-phenylpiperidin-1-yl]-2-oxoethyl}-5,5-dimethyl-1;3-oxazolidine-2,4-dione] | 0.058 nM |
| O=C1CC(C(=O)N2CC[C@H](NCc3cc(-c4ccc(Cl)cc4F)ccc3OC(F)(F)F)[C@H](c3ccccc3)C2)CC(=O)N1 [Example 132, 4-{[(3R,4S)-4-({[4′-chloro-2′-fluoro-4-(trifluoromethoxy)biphenyl-3-yl]methyl}amino)-3-phenylpiperidin-1-yl]carbonyl}piperidine-2,6-dione] | 0.14 nM |
| CC1(C)OC(=O)N(CC(=O)N2CC[C@H](NCc3cc(-c4ccc(C#N)cc4)ccc3OC(F)(F)F)[C@H](c3ccccc3)C2)C1=O [Example 137, 3′-[({(3R,4S)-1-[(5,5-dimethyl-2,4-dioxo-1,3-oxazolidin-3-yl)acetyl]-3-phenylpiperidin-4-yl}amino)methyl]-4′-(trifluoromethoxy)biphenyl-4-carbonitrile] | 0.042 nM |

Further lines, results first:

| IC50 | Compound |
| --- | --- |
| 0.019 nM | COc1ccc(-c2ccc(C#N)cc2)cc1CN[C@H]1CCN(C(=O)CNC(C)=O)C[C@H]1c1ccccc1 [Example 10, N-[2-((3R,4S)-4-{[(4′-cyano-4-methoxybiphenyl-3-yl)methyl]amino}-3-phenylpiperidin-1-yl)-2-oxoethyl]acetamide] |
| 0.019 nM | COc1ccc(-c2ccc(C#N)c(F)c2)cc1CN[C@H]1CCN(C(=O)CNC(C)=O)C[C@H]1c1ccccc1 [Example 21, N-[2-((3R,4S)-4-{[(4′-cyano-3′-fluoro-4-methoxybiphenyl-3-yl)methyl]amino}-3-phenylpiperidin-1-yl)-2-oxoethyl]acetamide] |
| 0.019 nM | COc1ccc(-c2ccc(C#N)cc2)cc1CN[C@H]1CCN(C(=O)[C@@H](CC(N)=O)NC(C)=O)C[C@H]1c1ccccc1 [Example 41, (3R)-3-(acetylamino)-4-((3R,4S)-4-{[(4′-cyano-4-methoxybiphenyl-3-yl)methyl]amino}-3-phenylpiperidin-1-yl)-4-oxobutanamide] |
| 0.018 nM | COc1ccc(-c2ccc(Br)cc2)cc1CN[C@H]1CCN(C(=O)CNC(C)=O)C[C@H]1c1ccccc1 [Example 22, N-[2-((3R,4S)-4-{[(4′-bromo-4-methoxybiphenyl-3-yl)methyl]amino}-3-phenylpiperidin-1-yl)-2-oxoethyl]acetamide] |
| 0.018 nM | COc1ccc(-c2ccc(C#N)cc2C)cc1CN[C@H]1CCN(C(=O)CNC(C)=O)C[C@H]1c1ccccc1 [Example 25, N-[2-((3R,4S)-4-{[(4′-cyano-4-methoxy-2′-methylbiphenyl-3-yl)methyl]amino}-3-phenylpiperidin-1-yl)-2-oxoethyl]acetamide] |
| 0.017 nM | COc1ccc(-c2ccc(C#N)cc2F)cc1CN[C@H]1CCN(C(=O)C2CCN(C(C)=O)CC2)C[C@H]1c1ccccc1 [Example 36, 3′-[({(3R,4S)-1-[(1-acetylpiperidin-4-yl)carbonyl]-3-phenylpiperidin-4-yl}amino)methyl]-2-fluoro-4′-methoxybiphenyl-4-carbonitrile] |
| 0.016 nM | COc1ccc(-c2ccc(C#N)cc2F)cc1CN[C@H]1CCN(C(=O)CNC(C)=O)C[C@H]1c1ccccc1 [Example 11, N-[2-((3R,4S)-4-{[(4′-cyano-2′-fluoro-4-methoxybiphenyl-3-yl)methyl]amino}-3-phenylpiperidin-1-yl)-2-oxoethyl]acetamide] |
| 0.015 nM | C#Cc1ccc(-c2ccc(OC)c(CN[C@H]3CCN(C(=O)CNC(C)=O)C[C@H]3c3ccccc3)c2)cc1 [Example 23, N-[2-((3R,4S)-4-{[(4′-ethynyl-4-methoxybiphenyl-3-yl)methyl]amino}-3-phenylpiperidin-1-yl)-2-oxoethyl]acetamide] |
| 0.015 nM | COCC(=O)N1CC[C@H](NCc2cc(-c3ccc(C#N)cc3)ccc2OC)[C@H](c2ccccc2)C1 [Example 32, 4′-methoxy-3′-({[(3R,4S)-1-(methoxyacetyl)-3-phenylpiperidin-4-yl]amino}methyl)biphenyl-4-carbonitrile] |
| 0.015 nM | COCC(=O)N1CC[C@H](NCc2cc(-c3ccc(C#N)cc3F)ccc2OC)[C@H](c2ccccc2)C1 [Example 33, 2-fluoro-4′-methoxy-3′-({[(3R,4S)-1-(methoxyacetyl)-3-phenylpiperidin-4-yl]amino}methyl)biphenyl-4-carbonitrile] |
| 0.015 nM | COc1ccc(-c2ccc(C#N)cc2)cc1CN[C@H]1CCN(C(=O)Cn2cnnn2)C[C@H]1c1ccccc1 [Example 43, 4′-methoxy-3′-({[(3R,4S)-3-phenyl-1-(1H-tetrazol-1-ylacetyl)piperidin-4-yl]amino}methyl)biphenyl-4-carbonitrile] |
| 0.015 nM | COc1ccc(-c2ccc(C#N)cc2)cc1CN[C@H]1CCN(C(=O)Cc2n[nH]c(=O)[nH]2)C[C@H]1c1ccccc1 [Example 44, 4′-methoxy-3′-[({(3R,4S)-1-[(5-oxo-4,5-dihydro-1H-1,2,4-triazol-3-yl)acetyl]-3-phenylpiperidin-4-yl}amino)methyl]biphenyl-4-carbonitrile] |
| 0.014 nM | COc1ccc(-c2ccc(C#N)cc2)cc1CN[C@H]1CCN(C(=O)C2CC(=O)NC(=O)C2)C[C@H]1c1ccccc1 [Example 42, 3′-[({(3R,4S)-1-[(2,6-dioxopiperidin-4-yl)carbonyl]-3-phenylpiperidin-4-yl}amino)methyl]-4′-methoxybiphenyl-4-carbonitrile] |
| 0.013 nM | N#Cc1ccc(-c2ccc(OC(F)(F)F)c(CN[C@H]3CCN(C(=O)C4CC(=O)NC(=O)C4)C[C@H]3c3ccccc3)c2)c(F)c1 [Example 102, 3′-[({(3R,4S)-1-[(2,6-dioxopiperidin-4-yl)carbonyl]-3-phenylpiperidin-4-yl}amino)methyl]-2-fluoro-4′-(trifluoromethoxy)biphenyl-4-carbonitrile] |
